Key:
hPSC-derived mesoderm = assay: Quantitative RT-PCR gene expression of differentiating mesoderm (Example 11); format: cell-based, human; conditions: longer and higher levels of Wnt activation (CHIR timing)
Experimental: Total RNA was prepared from differentiating human ES cells by using Nucleospin kit according to manufacturer's protocol. Reverse transcription PCR was performed by Superscript VILO cDNA synthesis kit. QuantStudio 5 and 6 were used for qPCR analyses. Statistics were performed with PRISM8 (GraphPad Software). Significance was determined by one-way ANOVA, followed by Tukey's test.
After SpM differentiation, the cells can be observed with an inverted microscope. The cells should be at 100% confluency (FIG. 9A). The efficiency of SpM induction can be checked by immunostaining for FOXF1 and/or ISL1, or expression of relative gene profiles as provided in Table 1.
The efficiency of organ-specific mesoderm differentiation can be checked by immunostaining for WT1, PITX1, FOXF1, NKX6.1, and/or TBX5, or expression of relative gene profiles as provided in Table 1.

[1] = system: hPSC-derived lateral plate mesoderm / splanchnic mesoderm cultures; assay: RT-PCR of marker genes in hPSC-derived lateral plate/splanchnic mesoderm cultures (Example 9); format: cell-based, human; conditions: primitive SM treated d4-d7
Experimental: Differentiation of hPSCs into lateral plate mesoderm was induced using previously described methods with modifications. In brief, partially confluent hPSCs were dissociated into very fine clumps in Accutase (Invitrogen) and passaged 1:18 onto new Geltrex-coated 24-well plates for immunocytochemistry and 12-well plates for RNA preparation in mTeSR1 with 1 μM thiazovivin (Tocris) ([…]). Next day, a brief wash with DMEM/F12 was followed with Day 0 medium (30 ng/mL Activin A (Cell Guidance Systems), 40 ng/mL. BMP4 (R&D Systems), 6 μM CHIR99021 (Tocris), 20 ng/mL FGF2 (Thermo Fisher), 100 nM PIK90 (EMD Millipore)) for 24 hours. A basal media composed of Advanced DMEM/F12, N2, B27, 15 mM HEPES, 2 mM […], penicillin-streptomycin was used for this Day 0 medium and all subsequent differentiations. On Day 1, a brief wash with DMEM/F12 was followed with Day 1 medium (1 μM A83-01 (Tocris), 30 ng/mL BMP4, 1 μM C59 (Cellagen Technology)) for 24 hours. For cardiac mesoderm generation, cells were cultured in 1 μM A83-01, 30 ng/mL BMP4, 1 μM C59, 20 ng/mL FGF2 from Day 2 to Day 4 (medium changed every day). From Day 4, cells were cultured in 200 μg/mL 2-phospho-ascorbic acid (Sigma), 1 μM XAV939 (Sigma), 30 ng/mL BMP4 for 3 days. […] Significance was determined by one-way ANOVA, followed by Tukey's test.

| Compound | NKX6-1 expression (hPSC-derived mesoderm) | WNT2 expression (hPSC-derived mesoderm) | organ-specific SM-like lineage identity (gene expression) [1] |
| --- | --- | --- | --- |
| Cc1c[nH]c(-c2cnc(NCCNc3ccc(C#N)cn3)nc2-c2ccc(Cl)cc2Cl)n1 [CHIR, CHIR99021] | suppressed | promoted | – |
| c1ccc2c(Oc3nc(Nc4ccc(N5CCOCC5)cc4)c4ncn(C5CCCCC5)c4n3)cccc2c1 [HH-agonist, purmorphamine] | – | – | promoted gut tube identity and efficiently blocked the hepatic fate |

— patent US20260002121A1, “IMPROVED METHODS OF PREPARING DIFFERENT MESODERM CELL TYPES” (Children's Hospital Medical Center, priority 2021, published 2026)
